Results: ChEMBL document CHEMBL1240508, “Design and synthesis of Hsp90 inhibitors: exploring the SAR of Sansalvamide A derivatives” (Bioorg Med Chem, 2010)
In brackets after ≈: the same amount, converted by molar mass. Activity calls are given as the source filed them. The rule behind the calls is not given here. Non-standard residues stand in square brackets, D forms with d. Residues, ends and D or L forms follow the SMILES beside them. *: point of attachment. dNMeF = CN[C@H](Cc1ccccc1)C(=O)O; Cha = N[C@@H](CC1CCCCC1)C(=O)O; NMeK = CN[C@@H](CCCCN)C(=O)O; Boc = CC(C)(C)OC(=O)*; Bn = c1ccc(C*)cc1

Test system: not listed separately
Assay: Solubility of the compound
Type: physicochemical
Conditions: not given

Row | SMILES | solubility [µM]
1 | CC(C)[C@H]1NC(=O)[C@@H](Cc2ccccc2)N(C)C(=O)[C@H](Cc2ccccc2)NC(=O)[C@H](COCc2ccccc2)NC(=O)[C@H](CC2CCCCC2)NC1=O (cyclo([Cha]S(Bn)F[dNMeF][dV])) | < 5
2 | CC(C)C[C@@H]1NC(=O)[C@@H]([C@H](OCc2ccccc2)c2ccccc2)NC(=O)[C@@H](Cc2ccccc2)NC(=O)[C@@H](CC(C)C)NC(=O)[C@H](C(C)C)N(C)C1=O | 7 (≈ 5.18 µg/mL)

Test system: not listed separately
Assay: Chemical stability of the compound assessed as half life
Type: physicochemical
Conditions: not given

Row | SMILES | half-life [h]
3 | CC(C)C[C@@H]1NC(=O)[C@@H]([C@H](OCc2ccccc2)c2ccccc2)NC(=O)[C@@H](Cc2ccccc2)NC(=O)[C@@H](CC(C)C)NC(=O)[C@H](C(C)C)N(C)C1=O | > 2.87

Test system: not listed separately
Assay: Efflux ratio of permeability in human Caco-2 cells
Type: ADME, cell-based
Conditions: not given

Row | SMILES | efflux ratio
4 | CC(C)C[C@@H]1NC(=O)[C@@H]([C@H](OCc2ccccc2)c2ccccc2)NC(=O)[C@@H](Cc2ccccc2)NC(=O)[C@@H](CC(C)C)NC(=O)[C@H](C(C)C)N(C)C1=O | 3

Test system: not listed separately
Assay: Inhibition of Hsp90 assessed as Her2 interaction at up to 11 uM by Western blotting
Conditions: not given

Row | SMILES | inhibition
5 | CC(C)[C@H]1NC(=O)[C@@H](Cc2ccccc2)N(C)C(=O)[C@H](Cc2ccccc2)NC(=O)[C@H](COCc2ccccc2)NC(=O)[C@H](CC2CCCCC2)NC1=O (cyclo([Cha]S(Bn)F[dNMeF][dV])) | Active
6 | CC(C)[C@H]1NC(=O)[C@@H](Cc2ccccc2)NC(=O)[C@H](Cc2ccccc2)NC(=O)[C@H](COCc2ccccc2)NC(=O)[C@H](CC2CCCCC2)NC1=O (cyclo([Cha]S(Bn)F[dF][dV])) | inactive

Test system: not listed separately
Assay: Inhibition of Hsp90 assessed as IP6K2 interaction at up to 11 uM by Western blotting
Conditions: not given

Row | SMILES | inhibition
7 | CC(C)[C@H]1NC(=O)[C@@H](Cc2ccccc2)N(C)C(=O)[C@H](Cc2ccccc2)NC(=O)[C@H](COCc2ccccc2)NC(=O)[C@H](CC2CCCCC2)NC1=O (cyclo([Cha]S(Bn)F[dNMeF][dV])) | Active
8 | CC(C)[C@H]1NC(=O)[C@@H](Cc2ccccc2)NC(=O)[C@H](Cc2ccccc2)NC(=O)[C@H](COCc2ccccc2)NC(=O)[C@H](CC2CCCCC2)NC1=O (cyclo([Cha]S(Bn)F[dF][dV])) | inactive

Test system: HCT-116
Assay: Cytotoxicity against human HCT116 cells after 72 hrs by [3H]thymidine incorporation assay
Conditions: not given

Row | SMILES | IC50 [µM]
9 | CC(C)C[C@@H]1NC(=O)[C@@H]([C@@H](OCc2ccccc2)c2ccccc2)NC(=O)[C@@H](Cc2ccccc2)NC(=O)[C@@H](CC(C)C)NC(=O)[C@H](C(C)C)N(C)C1=O (mixture of isomers) | 8.9
10 | CC(C)[C@H]1NC(=O)[C@@H](Cc2ccccc2)N(C)C(=O)[C@H](Cc2ccccc2)NC(=O)[C@H](COCc2ccccc2)NC(=O)[C@H](CC2CCCCC2)NC1=O (cyclo([Cha]S(Bn)F[dNMeF][dV])) | ≤ 1.9
11 | CC(C)C[C@@H]1NC(=O)[C@H]([C@@H](OCc2ccccc2)c2ccccc2)NC(=O)[C@@H](Cc2ccccc2)NC(=O)[C@@H](CC(C)C)NC(=O)[C@H](C(C)C)N(C)C1=O | 5.8
12 | CC(C)C[C@@H]1NC(=O)[C@@H]([C@H](OCc2ccccc2)c2ccccc2)NC(=O)[C@@H](Cc2ccccc2)NC(=O)[C@@H](CC(C)C)NC(=O)[C@H](C(C)C)N(C)C1=O | 3.2
13 | CC(C)C[C@@H]1NC(=O)[C@H](CC(C)C)NC(=O)[C@H](C(C)C)NC(=O)[C@H](CC(C)C)NC(=O)[C@H](Cc2ccccc2)NC1=O | 19.7

Test system: HCT-116
Assay: Cytotoxicity against human HCT116 cells at 10 uM after 72 hrs by [3H]thymidine incorporation assay
Conditions: read-out: GI

Row | SMILES | inhibition of growth at 10 µM [%]
14 | CC(C)C[C@@H]1NC(=O)[C@H](Cc2ccccc2)NC(=O)[C@H](CCCCN)N(C)C(=O)[C@H](CC(C)C)NC(=O)[C@H](C(C)C)NC1=O (cyclo(FLVL[NMeK])) | 0
15 | CC(C)C[C@@H]1NC(=O)[C@H](Cc2ccccc2)NC(=O)[C@H](CC(C)C)N(C)C(=O)[C@H](CC(C)C)NC(=O)[C@H](C(C)C)NC1=O | 35
16 | CC(C)C[C@@H]1NC(=O)[C@@H]([C@@H](OCc2ccccc2)c2ccccc2)NC(=O)[C@@H](Cc2ccccc2)NC(=O)[C@@H](CC(C)C)NC(=O)[C@H](C(C)C)N(C)C1=O (mixture of isomers) | 63
17 | CC(C)C[C@@H]1NC(=O)[C@@H](Cc2ccccc2)NC(=O)[C@@H](Cc2ccccc2)NC(=O)[C@@H](CC(C)C)N(C)C(=O)[C@H](C(C)C)N(C)C1=O | 15
18 | CC(C)C[C@@H]1NC(=O)[C@H](Cc2ccccc2)NC(=O)[C@H](CCCCNC(=O)OC(C)(C)C)N(C)C(=O)[C@H](CC(C)C)NC(=O)[C@H](C(C)C)NC1=O (cyclo(FLVL[NMeK](Boc))) | 58
19 | CC(C)C[C@@H]1NC(=O)[C@H](CC(C)C)NC(=O)[C@H](C(C)C)NC(=O)[C@@H](CC(C)C)NC(=O)[C@@H](Cc2ccccc2)NC1=O | 14
20 | CC(C)C[C@@H]1NC(=O)[C@H](C(C)C)NC(=O)[C@@H](CC(C)C)NC(=O)[C@@H](Cc2ccccc2)NC(=O)[C@H](CC(C)C)N(C)C1=O | 15
21 | CC(C)C[C@@H]1NC(=O)[C@H](Cc2ccccc2)NC(=O)[C@H](CCCCN)NC(=O)[C@H](CC(C)C)NC(=O)[C@@H](C(C)C)NC1=O (cyclo(FL[dV]LK)) | 0
22 | CC(C)C[C@@H]1NC(=O)[C@H](Cc2ccccc2)NC(=O)[C@H](CCCCN)NC(=O)[C@H](CC(C)C)NC(=O)[C@H](C(C)C)NC1=O (cyclo(FLVLK)) | 0
23 | CC(C)C[C@@H]1NC(=O)[C@H](Cc2ccccc2)NC(=O)[C@H](CCCCNC(=O)OC(C)(C)C)NC(=O)[C@H](CC(C)C)NC(=O)[C@H](C(C)C)NC1=O | 0
24 | CC(C)C[C@@H]1NC(=O)[C@H](C(C)C)NC(=O)[C@@H](Cc2ccccc2)N(C)C(=O)[C@H](Cc2ccccc2)NC(=O)[C@H](CCCCN)NC1=O (cyclo(F[dNMeF]VLK)) | 0
25 | CC(C)[C@H]1NC(=O)[C@@H](Cc2ccccc2)N(C)C(=O)[C@H](Cc2ccccc2)NC(=O)[C@H](COCc2ccccc2)NC(=O)[C@H](CC2CCCCC2)NC1=O (cyclo([Cha]S(Bn)F[dNMeF][dV])) | 93
26 | CC(C)C[C@@H]1NC(=O)[C@@H](CC(C)C)NC(=O)[C@@H](C(C)C)NC(=O)[C@H](CC(C)C)N(C)C(=O)[C@H](Cc2ccccc2)NC1=O | 30
27 | CC(C)C[C@@H]1NC(=O)[C@H](CC(C)C)NC(=O)[C@@H](C(C)C)NC(=O)[C@H](CC(C)C)NC(=O)[C@H](Cc2ccccc2)NC1=O | 8
28 | CC(C)C[C@@H]1NC(=O)[C@H](Cc2ccccc2)NC(=O)[C@@H](CC(C)C)NC(=O)[C@@H](CC(C)C)NC(=O)[C@H](C(C)C)NC1=O | 20
29 | CC(C)C[C@@H]1NC(=O)[C@H](CC(C)C)NC(=O)[C@H](C(C)C)NC(=O)[C@@H](Cc2ccccc2)N(C)C(=O)[C@H](Cc2ccccc2)NC1=O | 99
30 | CC(C)C[C@@H]1NC(=O)[C@H]([C@@H](OCc2ccccc2)c2ccccc2)NC(=O)[C@@H](Cc2ccccc2)NC(=O)[C@@H](CC(C)C)NC(=O)[C@H](C(C)C)N(C)C1=O | 64

Row | SMILES | inhibition of growth at 10 µM [%]
31 | CC(C)C[C@@H]1NC(=O)[C@H](CC(C)C)NC(=O)[C@H](C(C)C)NC(=O)[C@H](CC(C)C)NC(=O)[C@@H](Cc2ccc(O)cc2)NC1=O | 50
32 | CC(C)C[C@@H]1NC(=O)[C@@H]([C@H](OCc2ccccc2)c2ccccc2)NC(=O)[C@@H](Cc2ccccc2)NC(=O)[C@@H](CC(C)C)NC(=O)[C@H](C(C)C)N(C)C1=O | 94
33 | CC(C)C[C@@H]1NC(=O)[C@H](Cc2ccccc2)NC(=O)[C@H](CCCCNC(=O)OC(C)(C)C)NC(=O)[C@H](CC(C)C)NC(=O)[C@@H](C(C)C)NC1=O | 9
34 | CC(C)C[C@@H]1NC(=O)[C@H](C(C)C)NC(=O)[C@@H](Cc2ccccc2)N(C)C(=O)[C@H](Cc2ccccc2)NC(=O)[C@@H](CC(C)C)N(C)C1=O | 47
35 | CC(C)C[C@@H]1NC(=O)[C@H](CC(C)C)NC(=O)[C@H](C(C)C)NC(=O)[C@@H](Cc2ccccc2)NC(=O)[C@H](Cc2ccccc2)NC1=O | 21
36 | CC(C)C[C@@H]1NC(=O)[C@H](CC(C)C)NC(=O)[C@H](C(C)C)NC(=O)[C@H](CC(C)C)NC(=O)[C@@H](Cc2ccccc2)NC1=O | 26
37 | CC(C)C[C@@H]1NC(=O)[C@H](Cc2ccccc2)NC(=O)[C@@H](CC(C)C)N(C)C(=O)[C@H](CC(C)C)NC(=O)[C@H](C(C)C)NC1=O | 32
38 | CC(C)C[C@@H]1NC(=O)[C@@H](C(C)C)NC(=O)[C@@H](CC(C)C)NC(=O)[C@H](Cc2ccccc2)N(C)C(=O)[C@H](CC(C)C)NC1=O | 30
39 | CC(C)[C@H]1NC(=O)[C@@H](Cc2ccccc2)N(C)C(=O)[C@H](Cc2ccccc2)NC(=O)[C@H](CO)NC(=O)[C@H](CC2CCCCC2)NC1=O | 18
40 | CC(C)C[C@@H]1NC(=O)[C@H](CC(C)C)NC(=O)[C@@H](C(C)C)NC(=O)[C@@H](Cc2ccccc2)NC(=O)[C@H](Cc2ccccc2)NC1=O | 4
41 | CC(C)C[C@@H]1NC(=O)[C@H](Cc2ccccc2)NC(=O)[C@@H](Cc2ccccc2)NC(=O)[C@@H](CC(C)C)NC(=O)[C@H](C(C)C)NC1=O | 28
42 | CC(C)[C@H]1NC(=O)[C@@H](Cc2ccccc2)NC(=O)[C@H](Cc2ccccc2)NC(=O)[C@H](COCc2ccccc2)NC(=O)[C@H](CC2CCCCC2)NC1=O (cyclo([Cha]S(Bn)F[dF][dV])) | 10
43 | CC(C)C[C@@H]1NC(=O)[C@@H](Cc2ccccc2)NC(=O)[C@@H](CC(C)C)NC(=O)[C@H](CC(C)C)N(C)C(=O)[C@H](C(C)C)NC1=O | 18
44 | CC(C)C[C@@H]1NC(=O)[C@H](Cc2ccccc2)NC(=O)[C@@H](Cc2ccccc2)NC(=O)[C@@H](CCCCNC(=O)OCc2ccccc2)NC(=O)[C@H](C(C)C)N(C)C1=O | 36
45 | CC(C)C[C@@H]1NC(=O)[C@H](CC(C)C)NC(=O)[C@H](C(C)C)NC(=O)[C@H](CC(C)C)NC(=O)[C@@H](Cc2c[nH]c3ccccc23)NC1=O | 30
46 | CC(C)C[C@@H]1NC(=O)[C@H](CC(C)C)N(C)C(=O)[C@H](C(C)C)NC(=O)[C@@H](CC(C)C)NC(=O)[C@H](Cc2ccccc2)NC1=O | 3
